Source: patent US9474790B2, “Stable, protracted GLP-1/glucagon receptor co-agonists for medical use” (Novo Nordisk A/S, priority 2013, dated 2016)
Numbered stars: 1 amine (or outer) side, 2 acyl side, 3 side chain; on linkers, the order of the positions; unused ones are H or OH. Square brackets hold non-standard residues; d marks the D form. Side chains are listed from the residue outwards. Peptide text beside a SMILES is read from it. * marks the point of attachment. C18 diacid = O=C(O)CCCCCCCCCCCCCCCCC(=O)*; γGlu = O=C(O)[C@H](CCC(=O)[*:2])N[*:1]; Ac4c = NC1(C(=O)O)CCC1; AEEA = NCCOCCOCC(=O)O; Aib = CC(C)(N)C(=O)O

Experiments:
[1] = Thioflavin T (ThT) fibrillation assay for physical stability; format: physicochemical; details: 250 μM in 10 mM HEPES buffer, pH 7.5, 37° C., shaking 960 rpm
Summary of the method: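 Fibrillation was followed by ThT (1 μM) fluorescence every 20 min, 444/485 nm, for 250 μM peptide in 10 mM HEPES pH 7.5 shaken at 960 rpm, 37° C. Lag time (t0−2τ) and apparent rate constant (1/τ) come from a sigmoidal fit. Recovery is % of initial concentration remaining soluble after centrifugation and filtration (RP-HPLC).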

human GLP-1 receptor = target: T1, human GLP-1 receptor (Homo sapiens, UniProt P43220); assay: GLP-1 receptor potency, CRE luciferase reporter gene assay in BHK cells; format: cell-based; details: BHK cells expressing human GLP-1 receptor, read-out: EC50 GLP-1R
T1 construct: expressed in transfected cells; host or cells: BHK cells (parent BHKTS13), clone FCW467-12A/KZ10-1, with CRE luciferase
T1 sequence (P43220 24-463): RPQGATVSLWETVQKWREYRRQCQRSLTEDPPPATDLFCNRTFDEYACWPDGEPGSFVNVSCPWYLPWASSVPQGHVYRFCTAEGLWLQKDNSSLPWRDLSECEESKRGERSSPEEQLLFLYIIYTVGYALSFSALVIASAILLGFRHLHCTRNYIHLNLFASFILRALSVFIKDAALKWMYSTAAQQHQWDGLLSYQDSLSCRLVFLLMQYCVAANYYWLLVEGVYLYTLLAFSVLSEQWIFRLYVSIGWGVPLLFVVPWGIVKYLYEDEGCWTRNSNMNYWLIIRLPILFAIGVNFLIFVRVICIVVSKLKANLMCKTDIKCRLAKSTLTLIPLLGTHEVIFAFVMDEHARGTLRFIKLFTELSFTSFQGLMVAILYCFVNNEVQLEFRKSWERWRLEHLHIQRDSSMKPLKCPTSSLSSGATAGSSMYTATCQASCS
Summary of the method: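 Potency as cAMP-driven firefly luciferase signal after 3 h, 37° C exposure to 10-fold dilutions (final 1×10EE-13–1×10EE-6 M). Stable hGLP-1R/CRE-luc BHK clone, 5×10EE3 cells/well, medium containing 2% ovalbumin and 0.2% Pluronic F-68; EC50 (pM) from variable-slope non-linear regression.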

Row | Compound | THT assay Lag time (Ex. 76) [1] [h] | EC50 (human GLP-1 receptor) [pM]
1 | CC(C)C[C@H](NC(=O)[C@H](Cc1c[nH]c2ccccc12)NC(=O)[C@H](CCC(N)=O)NC(=O)[C@@H](NC(=O)[C@H](Cc1ccccc1)NC(=O)[C@H](CCC(=O)O)NC(=O)[C@H](CCCNC(=N)N)NC(=O)[C@H](C)NC(=O)[C@H](CCCNC(=N)N)NC(=O)[C@H](CCCNC(=N)N)NC(=O)C(C)(C)NC(=O)[C@H](CC(=O)O)NC(=O)[C@H](CC(C)C)NC(=O)[C@H](Cc1ccc(O)cc1)NC(=O)[C@H](CCCCN)NC(=O)[C@H](CO)NC(=O)[C@H](CC(C)C)NC(=O)[C@H](CC(=O)O)NC(=O)[C@H](CO)NC(=O)[C@@H](NC(=O)[C@H](Cc1ccccc1)NC(=O)[C@@H](NC(=O)CNC(=O)[C@H](CCC(N)=O)NC(=O)C(C)(C)NC(=O)[C@@H](N)Cc1c[nH]cn1)[C@@H](C)O)[C@@H](C)O)C(C)C)C(=O)N[C@@H](CC(C)C)C(=O)N[C@@H](CCCCNC(=O)CC[C@H](NC(=O)CC[C@H](NC(=O)COCCOCCNC(=O)COCCOCCNC(=O)CC[C@H](NC(=O)CCCCCCCCCCCCCCCCC(=O)O)C(=O)O)C(=O)O)C(=O)O)C(=O)N[C@H](C(N)=O)[C@@H](C)O [Example 51, N^ε28-[(4S)-4-carboxy-4-[[(4S)-4-carboxy-4-[[2-[2-[2-[[2-[2-[2-[[(4S)-4-carboxy-4-(17-carboxyheptadecanoylamino)butanoyl]amino]ethoxy]ethoxy]acetyl]amino]ethoxy]ethoxy]acetyl]amino]butanoyl]amino]butanoyl]-[Aib2,Leu10,Aib16,Arg20,Glu21,Leu27,Lys28]-Glucagon amide] (H-H[Aib]QGTFTSDLSKYLD[Aib]RRAREFVQWLLK([γGlu-γGlu-AEEA-AEEA-γGlu-C18 diacid])T-NH2; N-terminus assumed) | 45 | 6
2 | CC(C)C[C@H](NC(=O)[C@H](Cc1ccc(O)cc1)NC(=O)[C@H](CCCCN)NC(=O)[C@H](CO)NC(=O)[C@H](CC(C)C)NC(=O)[C@H](CC(=O)O)NC(=O)[C@H](CO)NC(=O)[C@@H](NC(=O)[C@H](Cc1ccccc1)NC(=O)[C@@H](NC(=O)CNC(=O)[C@H](CCC(N)=O)NC(=O)C(C)(C)NC(=O)[C@@H](N)Cc1c[nH]cn1)[C@@H](C)O)[C@@H](C)O)C(=O)N[C@@H](CCC(=O)O)C(=O)N[C@@H](CO)C(=O)N[C@@H](CCCCN)C(=O)N[C@@H](CCCNC(=N)N)C(=O)N[C@@H](C)C(=O)N[C@@H](CCCNC(=N)N)C(=O)N[C@@H](CCC(=O)O)C(=O)N[C@@H](Cc1ccccc1)C(=O)N[C@H](C(=O)N[C@@H](CCC(N)=O)C(=O)N[C@@H](Cc1c[nH]c2ccccc12)C(=O)N[C@@H](CC(C)C)C(=O)N[C@@H](CC(C)C)C(=O)N[C@@H](CCCCNC(=O)CC[C@H](NC(=O)CC[C@H](NC(=O)[C@H](CO)NC(=O)[C@H](CCC(=O)O)NC(=O)[C@H](CO)NC(=O)CC[C@H](NC(=O)CC[C@H](NC(=O)CCCCCCCCCCCCCCCCC(=O)O)C(=O)O)C(=O)O)C(=O)O)C(=O)O)C(=O)N[C@H](C(N)=O)[C@@H](C)O)C(C)C [Example 52] (H-H[Aib]QGTFTSDLSKYLESKRAREFVQWLLK([γGlu-γGlu-Ser-Glu-Ser-γGlu-γGlu-C18 diacid])T-NH2; N-terminus assumed) | 45 | 4

Continued, values first:

Row | THT assay Lag time (Ex. 76) [1] [h] | EC50 (human GLP-1 receptor) [pM] | Compound
3 | 45 | 2.7 | CC(C)C[C@H](NC(=O)[C@H](Cc1ccc(O)cc1)NC(=O)[C@H](CCCCN)NC(=O)[C@H](CO)NC(=O)[C@H](CC(C)C)NC(=O)[C@H](CC(=O)O)NC(=O)[C@H](CO)NC(=O)[C@@H](NC(=O)[C@H](Cc1ccccc1)NC(=O)[C@@H](NC(=O)CNC(=O)[C@H](CCC(N)=O)NC(=O)C(C)(C)NC(=O)[C@@H](N)Cc1c[nH]cn1)[C@@H](C)O)[C@@H](C)O)C(=O)N[C@@H](CCC(=O)O)C(=O)N[C@@H](CO)C(=O)N[C@@H](CCCCN)C(=O)N[C@@H](CCCNC(=N)N)C(=O)N[C@@H](C)C(=O)N[C@@H](CCCNC(=N)N)C(=O)N[C@@H](CCC(=O)O)C(=O)N[C@@H](Cc1ccccc1)C(=O)N[C@H](C(=O)N[C@@H](CCC(N)=O)C(=O)N[C@@H](Cc1c[nH]c2ccccc12)C(=O)N[C@@H](CC(C)C)C(=O)N[C@@H](CC(C)C)C(=O)N[C@@H](CCCCNC(=O)CC[C@H](NC(=O)CC[C@H](NC(=O)[C@H](CO)NC(=O)[C@H](CCC(=O)O)NC(=O)[C@H](CO)NC(=O)CC[C@H](NC(=O)CC[C@H](NC(=O)CCCCCCCCCCCCCCCCC(=O)O)C(=O)O)C(=O)O)C(=O)O)C(=O)O)C(=O)N[C@H](C(N)=O)[C@@H](C)O)C(C)C [Example 54, N^ε28-[(4S)-4-carboxy-4-[[(4S)-4-carboxy-4-[[(2S)-2-[[(2S)-4-carboxy-2-[[(2S)-2-[[(4S)-4-carboxy-4-[[(4S)-4-carboxy-4-(17-carboxyheptadecanoylamino)butanoyl]amino]butanoyl]amino]-3-hydroxypropanoyl]amino]butanoyl]amino]-3-hydroxypropanoyl]amino]butanoyl]amino]butanoyl]-[Aib2,Leu10,Glu15,Lys17,Arg20,Glu21,Leu27,Lys28]-Glucagon amide] (H-H[Aib]QGTFTSDLSKYLESKRAREFVQWLLK([γGlu-γGlu-Ser-Glu-Ser-γGlu-γGlu-C18 diacid])T-NH2; N-terminus assumed)
4 | 12 | 4 | CC(C)C[C@H](NC(=O)[C@H](Cc1ccc(O)cc1)NC(=O)[C@H](CCCNC(=N)N)NC(=O)[C@H](CO)NC(=O)[C@H](CC(C)C)NC(=O)[C@H](CC(=O)O)NC(=O)[C@H](CO)NC(=O)[C@@H](NC(=O)[C@H](Cc1ccccc1)NC(=O)[C@@H](NC(=O)CNC(=O)[C@H](CCC(N)=O)NC(=O)C1(NC(=O)[C@@H](N)Cc2c[nH]cn2)CCC1)[C@@H](C)O)[C@@H](C)O)C(=O)N[C@@H](CCC(=O)O)C(=O)N[C@@H](CO)C(=O)N[C@@H](CCCNC(=N)N)C(=O)N[C@@H](CCCNC(=N)N)C(=O)N[C@@H](C)C(=O)N[C@@H](CCCNC(=N)N)C(=O)N[C@@H](CCC(=O)O)C(=O)N[C@@H](Cc1ccccc1)C(=O)N[C@H](C(=O)N[C@@H](CCC(N)=O)C(=O)N[C@@H](Cc1c[nH]c2ccccc12)C(=O)N[C@@H](CC(C)C)C(=O)N[C@@H](CC(C)C)C(=O)N[C@@H](CCCCNC(=O)CC[C@H](NC(=O)CC[C@H](NC(=O)COCCOCCNC(=O)COCCOCCNC(=O)CC[C@H](NC(=O)CC[C@H](NC(=O)CCCCCCCCCCCCCCCCC(=O)O)C(=O)O)C(=O)O)C(=O)O)C(=O)O)C(=O)N[C@H](C(N)=O)[C@@H](C)O)C(C)C [Example 59, N^ε28-[(4S)-4-carboxy-4-[[(4S)-4-carboxy-4-[[2-[2-[2-[[2-[2-[2-[[(4S)-4-carboxy-4-[[(4S)-4-carboxy-4-(17-carboxyheptadecanoylamino)butanoyl]amino]butanoyl]amino]ethoxy]ethoxy]acetyl]amino]ethoxy]ethoxy]acetyl]amino]butanoyl]amino]butanoyl]-[Acb2,Leu10,Arg12,Glu15,Arg20,Glu21,Leu27,Lys28]-Glucagon amide] (H-H[Ac4c]QGTFTSDLSRYLESRRAREFVQWLLK([γGlu-γGlu-AEEA-AEEA-γGlu-γGlu-C18 diacid])T-NH2; N-terminus assumed)
5 | 45 | 6 | CC(C)C[C@H](NC(=O)[C@H](Cc1ccc(O)cc1)NC(=O)[C@H](CCCCN)NC(=O)[C@H](CO)NC(=O)[C@H](CC(C)C)NC(=O)[C@H](CC(=O)O)NC(=O)[C@H](CO)NC(=O)[C@@H](NC(=O)[C@H](Cc1ccccc1)NC(=O)[C@@H](NC(=O)CNC(=O)[C@H](CCC(N)=O)NC(=O)C(C)(C)NC(=O)[C@@H](N)Cc1c[nH]cn1)[C@@H](C)O)[C@@H](C)O)C(=O)N[C@@H](CCC(=O)O)C(=O)N[C@@H](CO)C(=O)N[C@@H](CCCNC(=N)N)C(=O)N[C@@H](CCCNC(=N)N)C(=O)N[C@@H](C)C(=O)N[C@@H](CCCNC(=N)N)C(=O)N[C@@H](CCC(=O)O)C(=O)N[C@@H](Cc1ccccc1)C(=O)N[C@H](C(=O)N[C@@H](CCC(N)=O)C(=O)N[C@@H](Cc1c[nH]c2ccccc12)C(=O)N[C@@H](CC(C)C)C(=O)N[C@@H](CC(C)C)C(=O)N[C@@H](CCCCNC(=O)CC[C@H](NC(=O)CC[C@H](NC(=O)COCCOCCNC(=O)COCCOCCNC(=O)CC[C@H](NC(=O)CC[C@H](NC(=O)CCCCCCCCCCCCCCCCC(=O)O)C(=O)O)C(=O)O)C(=O)O)C(=O)O)C(=O)N[C@H](C(N)=O)[C@@H](C)O)C(C)C [Example 60, N^ε28-[(4S)-4-carboxy-4-[[(4S)-4-carboxy-4-[[2-[2-[2-[[2-[2-[2-[[(4S)-4-carboxy-4-[[(4S)-4-carboxy-4-(17-carboxyheptadecanoylamino)butanoyl]amino]butanoyl]amino]ethoxy]ethoxy]acetyl]amino]ethoxy]ethoxy]acetyl]amino]butanoyl]amino]butanoyl]-[Aib2,Leu10,Glu15,Arg20,Glu21,Leu27,Lys28]-Glucagon amide] (H-H[Aib]QGTFTSDLSKYLESRRAREFVQWLLK([γGlu-γGlu-AEEA-AEEA-γGlu-γGlu-C18 diacid])T-NH2; N-terminus assumed)
